Assay [1] deals with T1, human androgen receptor (AR) (Homo sapiens, UniProt P10275).
T1 construct: expressed in transfected cells; host or cells: mouse myoblast C2C12 cells, transiently co-transfected
T1 sequence (P10275 1-920): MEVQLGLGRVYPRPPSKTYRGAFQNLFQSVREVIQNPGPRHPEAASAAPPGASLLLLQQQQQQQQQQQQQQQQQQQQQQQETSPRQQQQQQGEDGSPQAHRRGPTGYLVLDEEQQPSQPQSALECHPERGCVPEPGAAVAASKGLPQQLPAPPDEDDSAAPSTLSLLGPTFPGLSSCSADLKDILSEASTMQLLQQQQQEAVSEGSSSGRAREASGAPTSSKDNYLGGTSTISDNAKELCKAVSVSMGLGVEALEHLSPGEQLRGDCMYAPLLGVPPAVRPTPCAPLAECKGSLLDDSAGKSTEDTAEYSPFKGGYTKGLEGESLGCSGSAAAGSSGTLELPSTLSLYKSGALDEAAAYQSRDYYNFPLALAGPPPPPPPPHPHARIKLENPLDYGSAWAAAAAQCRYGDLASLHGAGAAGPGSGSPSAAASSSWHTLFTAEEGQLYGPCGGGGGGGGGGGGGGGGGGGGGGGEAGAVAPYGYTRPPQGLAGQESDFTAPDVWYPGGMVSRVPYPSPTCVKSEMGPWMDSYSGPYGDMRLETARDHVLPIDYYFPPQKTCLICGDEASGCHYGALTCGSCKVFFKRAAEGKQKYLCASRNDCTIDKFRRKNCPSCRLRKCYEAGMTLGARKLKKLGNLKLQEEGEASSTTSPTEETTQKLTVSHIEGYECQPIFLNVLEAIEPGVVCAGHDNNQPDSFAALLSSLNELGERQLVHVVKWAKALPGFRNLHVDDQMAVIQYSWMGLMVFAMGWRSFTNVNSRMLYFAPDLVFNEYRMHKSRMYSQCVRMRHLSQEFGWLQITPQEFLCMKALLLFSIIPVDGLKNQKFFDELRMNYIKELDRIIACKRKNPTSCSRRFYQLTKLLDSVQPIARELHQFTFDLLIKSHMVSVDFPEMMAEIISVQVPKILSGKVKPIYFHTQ
Kind of assay: C2C12 AR/ARE reporter assay. The assay is classed as cell-based. Here is the method: As an indicator of agonist activity in muscle tissue, the C2C12 AR/ARE reporter assay is performed. Briefly, mouse myoblast C2C12 cells are co-transfected using FuGENE™. […] Cells are transfected in T150 cm^2 flasks in DMEM media with 4% or 10% Fetal Bovine Serum […]. After a 5 hour incubation, transfected cells are trypsinized, plated in 96 well dishes in DMEM media containing 10% charcoal-stripped FBS, incubated for 2 h and then exposed to various concentrations of test compounds ranging from about 0.01 nM to 10 μM. After 48 h of incubations with compounds, cells are lysed and luciferase activity is determined using standard techniques. Data is fit to a 4 parameter-fit logistics to determine EC50 values. The % efficacy is determined versus maximum stimulation obtained with 10 nM methyltrienolone. […]
For orientation: A reporter such as luciferase makes a cellular process visible.

For assay [2], the target named is T2, human AR (androgen receptor) (Homo sapiens, UniProt P10275).
T2 construct: expressed in transfected cells; host or cells: 293 cells (293-AR lysate)
T2 sequence (P10275 1-920): T1 sequence (P10275 1-920)
Kind of assay: Steroid hormone nuclear receptor binding assay, AR binding. Here is the method:
Cell lysates from 293 cells overexpressing human GR (glucocorticoid receptor), AR (androgen receptor), MR (mineralocorticoid receptor) or PR (progesterone receptor) are used for competition binding assays to determine Ki values for test compounds. […] Competing compounds are added at various concentrations ranging from about 0.01 nM to 10 μM. Non-specific binding is determined in the presence of 500 nM dexamethasone for GR binding, 500 nM aldosterone for MR binding, or 500 nM methyltrienolone for AR and PR binding. The binding reaction (140 μl) is incubated for overnight at 4° C., then 70 μl of cold charcoal-dextran buffer (containing per 50 ml of assay buffer, 0.75 g of charcoal and 0.25 g of dextran) is added to each reaction. Plates are mixed 8 minutes on an orbital shaker at 4° C. Plates are then centrifuged at 3,000 rpm at 4° C. for 10 minutes. An aliquot of 120 μl of the mix is transferred to another 96-well plate and 175 μl of Wallac Optiphase “Hisafe 3” scintillation fluid is added to each well. Plates are sealed and shaken vigorously on an orbital shaker. After an incubation of 2 hrs, plates are read in a Wallac Microbeta counter. […] The Kd for ^3H-dexamethasone for GR binding, ^3H-methyltrienolone for AR binding, ^3H-aldosterone for MR binding, or ^3H-methyltrienolone for PR binding, is determined by saturation binding. The IC50 values for test compounds are converted to Ki using Cheng-Prusoff equation and the Kd determined by saturation binding assay. […]

[3] abbreviates: C2C12 AR/ARE reporter assay, average of n trials, read-out: C2C12 % Efficacy.
The mark [4] stands for this setting: C2C12 AR/ARE reporter assay, average of n trials, read-out: C2C12 EC50.
[5] abbreviates: average of n trials, read-out: AR binding Ki.
[6] abbreviates: C2C12, read-out: C2C12 % Efficacy.

The source of these data is patent US7935722B2 (Eli Lilly and Company, priority 2005, dated 2011).

The structures appear in SMILES notation. Like-named read-outs stand apart in the source and are kept apart here.

In the case of `O=C(NC1CCc2c(c3cc(Br)ccc3n2Cc2cccc(F)c2)C1)C(F)(F)F` (stereo not drawn) [Example 174], the Emax in assay [1] (setting [3]) was 65.2%. The EC50 (usually the midpoint of the concentration-response curve) in assay [1] (setting [4]) came to 88 nM. Besides, in assay [2] (setting [5]), the Ki (usually a measure of affinity in units of concentration, obtained from inhibition or displacement) is 7.1 nM.
For `CC(C)C(=O)NC1CCc2c(c3cc(C(=O)C(F)(F)F)ccc3n2Cc2cccc(F)c2)C1` (stereo not drawn) [Example 210, N-[9-(3-Fluoro-benzyl)-6-(2,2,2-trifluoro-acetyl)-2,3,4,9-tetrahydro-1H-carbazol-3-yl]-isobutyramide], the EC50 in assay [1] stood at 17.6 nM. Also, the Emax in assay [1] (setting [6]) came out at 71.2%. Besides, the inhibition constant (Ki) in assay [2] came out at 15.5 nM.
In assay [1], `CC(C)C(=O)NC1CCc2c(c3cc(Cl)ccc3n2Cc2cccc(C(F)(F)F)c2)C1` (stereo not drawn) [Example 83] yielded an EC50 of 85.1 nM. Moreover, the Emax in assay [1] (setting [6]) came to 93.1%. This compound also displayed an inhibitory constant (Ki) in assay [2] of 29.5 nM.
In the case of `CC(C)C(=O)NC1CCc2c(c3cc(C#N)ccc3n2Cc2ccccc2[N+](=O)[O-])C1` (stereo not drawn) [Example 108, N-[6-Cyano-9-(2-nitro-benzyl)-2,3,4,9-tetrahydro-1H-carbazol-3-yl]-isobutyramide], in assay [1], the midpoint of the response, the EC50, lay at 718 nM. The Emax in assay [1] (setting [6]) amounted to 58.4%. This compound also came in with a Ki in assay [2] of 57.3 nM.
As for `Cc1csc(-c2ccc3c(c2)c2c(n3Cc3cccc(F)c3)CC[C@@H](NC(=O)C(C)C)C2)n1` [Example 128, (R)-N-[9-(3-Fluorobenzyl)-6-(4-methylthiazol-2-yl)-2,3,4,9-tetrahydro-1H-carbazol-3-yl]isobutyramide], the midpoint of the response in assay [1], the EC50, lay at 236 nM. The Emax in assay [1] (setting [6]) was 72.5%. This compound also showed a Ki in assay [2] of 43 nM.
In the same order, the values of `COc1ccc2c(c1)c1c(n2Cc2ccccc2Cl)CCC(NC(=O)C(C)C)C1` (stereo not drawn) [Example 69, N-[9-(2-Chloro-benzyl)-6-methoxy-2,3,4,9-tetrahydro-1H-carbazol-3-yl]-isobutyramide] are 213 nM, 63.3% and 34.1 nM.
In the case of `CC(C)C(=O)NC1CCc2c(c3cc(C#N)ccc3n2Cc2ccccc2N(C)C)C1` (stereo not drawn) [Example 114, N-[6-Cyano-9-furan-(2-dimethylamino-benzyl)-2,3,4,9-tetrahydro-1H-carbazol-3-yl]-isobutyramide], the EC50 in assay [1] was determined as 98.7 nM. The Emax in assay [1] (setting [6]) was determined as 118%. The compound also returned an inhibition constant Ki in assay [2] of 20.8 nM.
In turn, `CC(C)C(=O)NC1CCc2c(c3cc(C#N)ccc3n2Cc2ccccc2O)C1` (stereo not drawn) [Example 107, N-[6-Cyano-9-(2-hydroxy-benzyl)-2,3,4,9-tetrahydro-1H-carbazol-3-yl]-isobutyrarmide] displayed an EC50 in assay [1] of 0.5 nM. Moreover, the Emax in assay [1] (setting [6]) was found to be 86.2%. Besides, the Ki in assay [2] worked out at 3.1 nM.
For the compound `CCC(=O)NC1CCc2c(c3cc(OC)ccc3n2Cc2ccccc2)C1` (stereo not drawn) [Example 66, N-(9-Benzyl-6-methoxy-2,3,4,9-tetrahydro-1H-carbazol-3-yl)-propionamide], in assay [1] (setting [3]), the Emax worked out at 79.8%. The EC50 in assay [1] (setting [4]) was determined as 19.2 nM. Moreover, the Ki in assay [2] (setting [5]) was determined as 6.9 nM.
`CC(C)C(=O)N[C@@H]1CCc2c(c3cc(-c4cnc(N)s4)ccc3n2Cc2cccc(F)c2)C1` [Example 141] showed an EC50 in assay [1] of 41 nM. In addition, in assay [1] (setting [6]), the Emax is 102%. Also, the Ki in assay [2] turned out to be 10 nM.
In assay [1], `CC(C)C(=O)NC1CCc2c(c3cc(C#N)c(Cl)cc3n2Cc2cccc(F)c2)C1` (stereo not drawn) [Example 118, N-[7-Chloro-6-cyano-9-(3-fluoro-benzyl)-2,3,4,9-tetrahydro-1H-carbazol-3-yl]-isobutyramide] came in with a concentration giving a half-maximal response (EC50) of 31.7 nM. Also, the Emax in assay [1] (setting [6]) was 124%. Also, the Ki in assay [2] stood at 5.9 nM.
In the same order, the values of `COC(=O)NC1CCc2c(c3cc(C#N)ccc3n2Cc2cccc(F)c2)C1` (stereo not drawn) [Example 184, [6-Cyano-9-(3-fluoro-benzyl)-2,3,4,9-tetrahydro-1H-carbazol-3-yl]-carbamic acid methyl ester] are 27.3 nM, 78.9% and 2.8 nM.
In the same order, the values of `COc1cccc(Cn2c3c(c4cc(OC)ccc42)CC(NC(=O)C(C)C)CC3)c1` (stereo not drawn) [Example 73] are 227 nM, 54.7% and 52.1 nM.
With `Cc1nc(Cn2c3c(c4cc(C#N)ccc42)C[C@H](NC(=O)C(C)C)CC3)cs1` [Example 151, (R)-N-[6-cyano-9-(2-methyl-thiazol-4-ylmethyl)-2,3,4,9-tetrahydro-1H-carbazol-3-yl]-isobutyramide], in assay [1], it took 30.4 nM to reach a half-maximal effect (EC50). In addition, the Emax in assay [1] (setting [6]) was 85.6%. In addition, the Ki in assay [2] came out at 12.4 nM.
Take `CC(C)C(=O)N[C@@H]1CCc2c(c3cc(C(=O)O)ccc3n2Cc2cccc(F)c2)C1` [Example 188]: the Emax in assay [1] (setting [3]) worked out at 82.4%. In addition, the EC50 in assay [1] (setting [4]) is 794 nM. The inhibition constant Ki in assay [2] (setting [5]) stood at 952 nM.
Consider `CC(C)C(=O)NC1CCc2c(c3cc(C#N)ccc3n2Cc2cnc(Cl)s2)C1` (stereo not drawn) [Example 155, N-[9-(2-Chloro-thiazol-5-ylmethyl)-6-cyano-2,3,4,9-tetrahydro-1H-carbazol-3-yl]-isobutyramide], for which, in assay [1], the EC50 amounted to 102 nM. For the same compound, the Emax in assay [1] (setting [6]) is 54.8%. The compound further gave a Ki in assay [2] of 13.5 nM.
For `COC(=O)N[C@@H]1CCc2c(c3cc(C#N)ccc3n2Cc2ccccn2)C1` [Example 185, (6(R)-Cyano-9-pyridin-2-ylmethyl-2,3,4,9-tetrahydro-1H-carbazol-3-yl)-carbamic acid methyl ester], the Emax in assay [1] (setting [3]) was 77.5%. Moreover, in assay [1] (setting [4]), the EC50 was 76 nM. Also, the Ki in assay [2] (setting [5]) is 23.3 nM.
Regarding `COc1ccc2c(c1)c1c(n2Cc2ccccc2)CCC(NC(=O)C2CC2)C1` (stereo not drawn) [Example 68, Cyclopropanecarboxylic acid (9-benzyl-6-methoxy-2,3,4,9-tetrahydro-1H-carbazol-3-yl)-amide], in assay [1], the midpoint of the response, the EC50, lay at 40.8 nM. In assay [1] (setting [6]), the Emax turned out to be 98%. The affinity in assay [2], expressed as Ki, was 46.2 nM.
In the same order, the values of `CC(C)C(=O)N[C@@H]1CCc2c(c3cc(C=O)ccc3n2Cc2cccc(F)c2)C1` [Example 200, (R)-N-[9-(3-Fluorobenzyl)-6-formyl-2,3,4,9-tetrahydro-1H-carbazol-3-yl]-isobutyramide] are 8.1 nM, 112% and 2.8 nM.
With `COc1ccc2c(c1)c1c(n2Cc2ccc(F)cc2)CCC(NC(=O)C(C)C)C1` (stereo not drawn) [Example 80], the Emax in assay [1] (setting [6]) is 59.9%.
Consider `COc1ccc2c(c1)c1c(n2Cc2ccccc2OC)CCC(NC(=O)C(C)C)C1` (stereo not drawn) [Example 72], for which the Emax in assay [1] (setting [6]) turned out to be 66.4%.
For `COC(=O)c1cccc(Cn2c3c(c4cc(Cl)ccc42)CC(NC(=O)C(C)C)CC3)c1` (stereo not drawn) [Example 84], the Emax in assay [1] (setting [6]) came to 32.9%.
`CC(C)C(=O)NC1CCc2c(c3cc(C#N)ccc3n2Cc2cccc([N+](=O)[O-])c2)C1` (stereo not drawn) [Example 88, N-[6-cyano-9-(3-nitro-benzyl)2,3,4,9-tetrahydro-1H-carbazol-3-yl]-isobutyramide]: the Emax in assay [1] (setting [6]) was found to be 96.1%.
With `COc1cccc(Cn2c3c(c4cc(F)ccc42)CC(NC(=O)C(C)C)CC3)c1` (stereo not drawn) [Example 10], in assay [1] (setting [6]), the Emax worked out at 40.4%.
Consider `COc1ccc(Cn2c3c(c4cc(OC)ccc42)CC(NC(=O)C(C)C)CC3)cc1` (stereo not drawn) [Example 74], for which the Emax in assay [1] (setting [6]) is 22.6%.
